Patent publication US20220305093A1, “NK-LYSIN PEPTIDE COMPOSITIONS AND METHODS FOR THEIR USE AS ANTIMICROBIAL/ANTIVIRAL AGENTS” (priority 2021, published 2022)
≈ marks a conversion by molar mass, not a printed value. Where two headings read alike, the source gives them in different places. Residues, ends and D or L forms follow the SMILES beside them.

Columns and labels:
[1] = tested on: S. typhimurium (ATCC 14028); type: cell-based, Salmonella typhimurium
Procedure: Screening of NK-lysin peptides was carried out against gram-negative S. typhimurium (ATCC 14028) bacteria. Overnight cultivation of the bacteria was carried out at a temperature of 3TC. A bacterial suspension was created in 10 mM sodium phosphate buffer pH 7.0 having a density of (2×10^6 CFU ml^−1) and plated on Muller-Hinton (MH) agar plates to inoculate. After the plates were dry, antibiotics discs of various concentrations (0 to 150 μg/ml) of antibiotic or NK-lysin peptides were applied to the surface of the inoculated plates. The plates were cultured overnight at 3TC and observed for restriction of growth by determining the diameter of bacterial-free zones surrounding each disc. Ceftazidime antibiotic was employed as a positive control.

[2] = tested on: Streptococcus mutans (isolate); assay: microbe, parasite or virus in culture; settings: isolate
Procedure: (§1) The minimum inhibitory concentration (MIC) is defined as the lowest concentration of an antimicrobial ingredient or agent that is bacteriostatic (prevents the visible growth of bacteria).
(§2) Mueller Hinton broth (MHB) comprising 0.01% v/v acetic acid (Sigma Aldrich; St Louis, Mo.) and 0.2% w/v bovine serum albumin (Sigma Aldrich). Equal concentrations of bacteria were plated in wells of standard tissue culture microplates at a density of 0.5×10^8 CFU ml^−1 in MHB per well. Treatments were equivalent volumes (50 μl) of NK-lysin peptides in concentrations of 0 to 150 μg/ml, or no NK-lysin peptides for control wells. The treated plates were incubated at […] and optical densities were determined for each well at 0 minutes, 1, 2 and 3 hours and after an overnight incubation.

[3] = tested on: Salmonella typhimurium (ATCC 14028); assay: microbe, parasite or virus in culture; settings: S.typhimrium ATCC 14028
Procedure: as §1, §2

[4] = tested on: Escherichia coli (ATCC 11775); assay: microbe, parasite or virus in culture; settings: ATCC 11775
Procedure: as §1, §2

[5] = tested on: Klebsiella oxytoca (ATCC 49131); assay: microbe, parasite or virus in culture; settings: ATCC 49131
Procedure: as §1, §2

[6] = tested on: Pseudomonas aeruginosa (ATCC 9027); assay: microbe, parasite or virus in culture; settings: ATCC 9027
Procedure: as §1, §2

[7] = tested on: Shigella sonnei (ATCC 25931); assay: microbe, parasite or virus in culture; settings: Sh. sonnei ATCC 25931
Procedure: as §1, §2

[8] = tested on: Klebsiella pneumoniae (patient isolate); assay: microbe, parasite or virus in culture; settings: patient isolate
Procedure: as §1, §2

[9] = tested on: Streptococcus pyogenes (ATCC 19615); assay: microbe, parasite or virus in culture; settings: ATCC 19615
Procedure: as §1, §2

Rotavirus (strain SA-11) = type: cell-based
Procedure: Rotavirus (strain SA-11) was activated with 10 μg/mL trypsin before propagation on MA-104 cells derived from kidney cells of African […] monkey. MA-104 cells were cultivated in tissue culture flasks in the presence of less than 5% CO2 at 37° C. in Dulbecco's Minimal Essential Medium (DMEM) (Sigma-Aldrich) The DMEM included 1% antibiotic antimycotic solution and 10% heat inactivated fetal bovine serum (A5955, Sigma-Aldrich). Centrifugation of rotavirus was performed at 300×g for 5 mins in order to purify by removal of cell debris. The supernatant was utilized as a stock suspension of virus after filtration through 0.2 μm membrane. The stock virus contained 10^6-10^7 TCID50 per mL and was stored at −80° C. for future use.
In order to activate infectivity, rotavirus was placed in a solution of 10 μg/mL trypsin at 37° C. for 30 min. A 100 μl aliquot of the activated rotavirus sa-11 was mixed with and equal volume of 80 μg/ml NK-lysin peptides for a final rotavirus concentration of 1×10^6 TCID50/ml. The rotavirus and NK-lysin peptide mixture was first incubated for at 37° C. for 1 hour. Serial dilutions of rotavirus and rotavirus+peptide mixtures were prepared. Aliquots 100 μl of the 10-fold serial dilutions were then added to 96-well tissue culture plates comprising monolayers of MA-104 cells at a density of approximately 5.0×10^4 cells per well. Eight wells were used for each sample to make sure sufficient assay precision was achieved. The microplates were incubated for 5 days at 37° C. under 5% CO2 atmosphere. During the 5-day incubation, cells were monitored daily under a microscope to check for a cytopathic effect (CPE). A tissue culture infectious dose (TCID) was the infectious dose/mL of tissue culture equal to 50 percent of wells showing CPE at a specific dilution and was expressed as the TCID50 for that dilution. The highest dilutions in which 50% or higher wells were read as the TCID50.

[10] = tested on: Streptococcus mutans (isolate); assay: Growth kinetic activity at 2×MIC; type: cell-based; settings: time dependent, FIG. 3B
Procedure: (§3) The kinetic killing abilities of NK-lysin peptides were gauged in accordance with the Clinical Laboratory and Standard Institute (CLSI) broth micro-dilution technique presented by Wiegand and Hancock (2008). Mueller Hinton broth comprising 0.01% v/v acetic acid was prepared with 0.2% w/v bovine serum albumin, as above. […] The plate was then incubated at room temperature. […] A distinct triplicate was used to repeat the kinetic potential of NK-lysin peptides thrice.

[11] = tested on: Salmonella typhimurium (ATCC 14028); assay: Growth kinetic activity at 2×MIC; type: cell-based
Procedure: as §3

[12] = tested on: gram-positive and gram-negative bacteria; assay: organism not typed; settings: in vitro, some bacterial strains
Text: The gram-positive bacterial strains utilized were Streptococcus pyogenes (ATCC 19615) and Streptococcus mutans (isolate obtained from a patient at King Abdul-Aziz hospital). The gram-negative bacterial strains used included Salmonella typhimurium (ATCC 14028), Escherichia coli (ATCC 11775), Pseudomonas aeruginosa (ATCC 9027), Klebsiella oxytoca (ATCC 49131), Shigella sonnei (ATCC 25931), and Klebsiella pneumoniae (patient isolate). Tryptic soy broth (TSB) was used to grow all bacterial strain overnight, after which the bacteria were washed using phosphate-buffered saline (PBS, NaCl 8 g/L, KCl 0.2 g/L, Na2HPO4 1.4 g/L, KH2PO4 0.24 g/L), and then diluted in the same buffer with 1/1000 TSB to an OD600 nm of 0.08-0.1 (1×10^8) colony-forming units (CFU)/ml, which was determined after performing retrospective plate counts on tryptic soy agar. Unless otherwise noted, the experiments in the following examples employed this inoculum preparation apart from when minimum inhibitory and bactericidal concentrations were determined, which employed cells in Muller Hinton broth. […]
Mueller Hinton broth (MHB) comprising 0.01% v/v acetic acid (Sigma Aldrich; St Louis, Mo.) and 0.2% w/v bovine serum albumin (Sigma Aldrich). […] The treated plates were incubated at […] and optical densities were determined for each well at 0 minutes, 1, 2 and 3 hours and after an overnight incubation. […]

[13] = tested on: Salmonella typhimurium (ATCC 14028); assay: Leakage of intracellular contents (DNA/RNA release, OD 260 nm); type: cell-based; settings: 15 min
Procedure: The protocol of Carson et al. (Antimicrob Agents Chemother. 2002 June; 46(60:1914-20) was used with some changes to perform the assay for determining the loss of DNA/RNA. In short, 50 μl of bacteria was combined with the same volume of NK-lysin peptides at 2×MIC and then incubated at room temperature. Samples were harvested at 15, 30 and 60 minutes, diluted 1:10 and then filtered across 0.22 μm pores (Merck; Tullagreen, Ireland). The measurement of the O.D 260 nm of the filtrates was carried out over NanoDrop plate (Greiner Bio-One GmbH; Frickenhausen, Germany). The results were presented as a ratio to the original OD260 nm. 16S rRNA Amplification Two universal primer sets 341F and 534 R were used to amplify 500 bp of 16s rRNA gene of Salmonella typhimurium. The forward primer had the following sequence: 5′-CCT ACG GGA GGC AGC AG-3′ (SEQ ID NO:04), whereas the reverse primer had the following: 5′-ATT ACC GCG GCT GCT GGC-3′ (SEQ ID NO:05). PCR amplification reactions were carried out in 50 μl of overall volume with a reaction mixture comprising 50 ng template DNA, 10 pmol each primer, 0.25 U Taq DNA polymerase, 10 mM Tris-HCl (pH.9.0), […] dNTPs mix, 30 mM KCl, 1.5 mM MgCl2 in sterile nuclease-free water. […]

[14] = tested on: S. typhimurium (ATCC 14028); assay: Colony count assays; type: cell-based, Salmonella typhimurium; settings: 30 μg/ml
Procedure: Antimicrobial activity of NK-lysin peptides was assayed in cultures of S. typhimurium (ATCC 14028). The bacteria were maintained in tryptic soy broth at 3TC and were grown to the mid-logarithmic phase prior to testing. To determine the activity of NK-lysin peptides, colony count assays were carried out. Bacteria were pelleted and then re-suspended in a 10 mM sodium phosphate buffer pH 7.0 and then diluted to a density of (2×10^6 CFU ml^−1 in MHB. 50 μl of NK-lysin peptide were combined with an equal volume of bacterial culture and incubated at room temperature for 3 hours. A 1 μl sample of each culture was then diluted by 1000 (in 1 ml) and spread over MH agar plates. Colonies were counted after 24 hours at room temperature to determine the bacteria that survived.

[15] = 80 μg/ml peptide, Rotavirus (SA-11)

Compound: gentamicin [reference compound]
- clear zone diameter ([1]; discs on MH agar, overnight): 28 mm

Compound: CC[C@H](C)[C@H](NC(=O)[C@H](C)NC(=O)[C@H](CC(=O)O)NC(=O)[C@H](CCC(=O)O)NC(=O)[C@H](CC(=O)O)NC(=O)[C@@H]1CCCN1)C(=O)N[C@@H](CC(N)=O)C(=O)N[C@@H](CC(N)=O)C(=O)N[C@@H](C)C(=O)N[C@@H](CC(C)C)C(=O)N[C@@H](CC(N)=O)C(=O)N[C@@H](CCCCN)C(=O)N[C@H](C(=O)N[C@@H](CS)C(=O)N[C@@H](CO)C(=O)N[C@H](C(=O)NCC(=O)N[C@@H](CCCNC(=N)N)C(=O)N[C@@H](CCCNC(=N)N)C(=O)N[C@@H](CCC(N)=O)C(=O)N[C@@H](CCCNC(=N)N)C(=O)N[C@@H](CO)C(=O)N[C@H](C(=O)N[C@@H](CS)C(=O)N[C@@H](CCCCN)C(=O)N[C@@H](CCC(N)=O)C(=O)N[C@@H](CC(C)C)C(=O)N[C@@H](CC(C)C)C(=O)N[C@@H](CCCCN)C(=O)N[C@@H](CCCCN)C(=O)O)[C@@H](C)CC)[C@@H](C)O)C(C)C [Chicken NK-lysin] (H-PDEDAINNALNKVCSTGRRQRSICKQLLKK-OH; N-terminus and C-terminus assumed)
- MBC [2]: 15 ± 0.00 mg/L (≈ 4.41 µM)
- MIC [2]: 15 ± 0.00 mg/L (≈ 4.41 µM)
- MBC [3]: 30 ± 0.10 mg/L (≈ 8.82 µM)
- MIC [3]: 15 ± 0.098 mg/L (≈ 4.41 µM)
- MBC [4]: 25 ± 0.010 mg/L (≈ 7.35 µM)
- MIC [4]: 15 ± 0.012 mg/L (≈ 4.41 µM)
- MBC [5]: 25 ± 0.10 mg/L (≈ 7.35 µM)
- MIC [5]: 15 ± 0.015 mg/L (≈ 4.41 µM)
- MBC [6]: 25 ± 0.013 mg/L (≈ 7.35 µM)
- MIC [6]: 15 ± 0.012 mg/L (≈ 4.41 µM)
- MIC [7]: 15 ± 0.033 mg/L (≈ 4.41 µM)
- MBC [8]: 25 ± 0.010 mg/L (≈ 7.35 µM)
- MIC [8]: 15 ± 0.030 mg/L (≈ 4.41 µM)
- MBC [9]: 25 ± 0.010 mg/L (≈ 7.35 µM)
- MIC [9]: 15 ± 0.00 mg/L (≈ 4.41 µM)
- Log10TCID50/ml (Rotavirus (strain SA-11); [15]): 5.61
- TCID50/ml (Rotavirus (strain SA-11); [15]): 4.11 × 10^5 TCID50/ml
- % reduction (Rotavirus (strain SA-11); 80 μg/ml peptide, versus initial titre): 79%
- inhibition of infection / infectivity (Rotavirus (strain SA-11); Rotavirus (strain SA-11)): 80%
- clear zone diameter ([1]; ATCC 14028): 23 mm
- kinetic activity compared between peptides [10]: more potent activity than bovine or human NK-lysin peptides
- growth inhibition ([11]; 2×MIC, after 4 hr of incubation): Complete inhibition
- lethality ([11]; 1 hr after treatment): high lethality
- time to nearly complete killing [12]: ≤ 3 h
- release of DNA/RNA (OD 260 nm), words [13]: higher activity
- decrease of colony number [14]: approximately 10 fold
